These results are taken from patent US20100203614A1, “FATTY ALDEHYDE REDUCTASE” (Utah State University, priority 2009, published 2010).

One test deals with MBP-FALDR fusion protein. The test is described as follows: Inhibition of decanal reduction by MBP-FALDR in the presence of NADPH. Type of test: biochemical, Marinobacter aquaeolei VT8. Particulars: at the two concentrations tested. The protocol:
(§1) For Fatty Aldehyde Continuous Spectrophotometric Assay Development, all assays were performed in a sealed quartz cuvette with a 1 cm path length. The cuvette and solutions were first degassed with argon on a manifold to remove oxygen from the headspace and solutions. Substrates were initially disbursed into a buffer solution containing BSA at a concentration of 0.5 mg/mL by sonication for three ten second intervals using a microtip sonicator (Branson, Danbury, Conn.). The initial assay for pH optimization included a buffer of 100 mM MOPS, 100 mM MES, and 100 mM TAPS. For reduction assays, 75 μL of a 2 mg/mL NADPH stock was added to bring the initial concentration of NADPH in the cuvette to approximately 200 μM, and an approximate absorbance at 340 nm of 1.2 based on the reported extinction coefficient of 6220 M^−1 cm^−1 for NADPH. In all assays, the reaction was run for at least two minutes with the NADPH and substrate present, prior to the addition of any enzyme, to obtain a background oxidation rate of the NADPH.
Finally, the ability of decanol to inhibit reduction of decanal was also tested.
Referring again to Table 2, the inhibition assays were run in 100 mM MES buffer pH 6.5 with 200 μM NADPH, 250 μM decanal and 125 μg of MBP-FALDR fusion protein. All compounds were dissolved in buffer except dipyridyl, which was dissolved in dimethyl sulfoxide (DMSO).

In test [1] the test system is MBP-FALDR enzyme. Put plainly: Reversibility and cofactor test, spectrophotometric at 340 nm (NADP+, NADH, NAD+). The test is classed as biochemical, Marinobacter aquaeolei VT8. Particulars: NADH with decanal, NAD+ with decanol, in place of NADPH/NADP+. An excerpt:
When the assay was used to check for activity with NADH in place of NADPH, NADH was substituted for NADPH at the same concentration as was used for NADPH, and the assay run as described above. Reactions using either NADP^+ or NAD^+ also used the same concentration, but it followed the increase in absorbance monitored at 340 nm. Once the pH optimum was established for the enzyme, TAPS and MOPS were removed from the buffer, and only MES was used.
To test the possible reversibility of the fatty aldehyde reducatase enzyme comprising the amino acid sequence of SEQ ID NO: 2, the oxidation of a number of alcohols to the corresponding aldehyde using NADP^+ as the oxidant were tested. These tests were performed with the MBP-FALDR enzyme. In these assays, the increase in absorbance at 340 nm was followed. Under no conditions did any reduction of NADP^+ occur in the presence of the fatty alcohols tested. As a control, the alcohol dehydrogenase from Thermoanaerobium brokii was followed with 2-propanol and the same stock of NADP^+ to confirm the integrity of the assay.

Test [2] has as its system MBP-FALDR enzyme. Put plainly: Initial assessment of activity: overnight reaction with NADPH/NADH or NADP+, GC/GC-MS analysis. Type of test: biochemical, Marinobacter aquaeolei VT8. The protocol:
For initial assessment of the activity of the purified MBP-FALDR enzyme, 50 μg of purified MBP-FALDR protein was added to a reaction mixture containing 100 mM of Tris buffer at pH 7.9, 100 mM NaCl, 2.4 mM of either NADPH or NADH as a reductant, and decanal, oleic acid, and hexadecanol as possible substrates. The assays were run under an argon atmosphere in septa sealed vials overnight at room temperature with constant gentle mixing. The products of the reactions were then extracted from the buffer by adding an equal volume of hexane and organic layer components were analyzed by gas chromatography equipped with a flame ionization detector (Forte HT5 column (SGE Analytical Science, Austin, Tex.), 30 meter by 0.32 mm inner diameter with 0.5 μm film thickness, with argon as a carrier and a temperature ramp from 60° C. to 360° C. increasing at 10° C. per minute). Samples containing new peaks not present in a control sample were also run through a gas chromatograph equipped with a mass spectrometer (Shimadzu GC-2010 and GCMS-QP2010S) to assign the identity of the product.
Preliminary experiments were run with the MBP-FALDR enzyme to probe possible substrates by mixing either NADH or NADPH with an aldehyde (decanal), alcohol (hexadecanol) or fatty acid (oleic acid) and then looking for changes in concentration of one or more of the potential substrates by GC analysis. The assays were allowed to run overnight in a sealed vial under an atmosphere of argon to maintain the reduced forms of the nicotinamide coenzymes. […] This initial result pointed to the likelihood that the MBP-FALDR enzyme is an NADPH-dependent fatty aldehyde reductase, and further experiments were run to characterize this activity. […] The activity of medium chain alcohol dehydrogenases from a broad range of species show rates of oxidation of alcohols that are 10% of the rates of the reduction of the corresponding aldehyde, so it is possible that this rate is too low to detect.

Test [3] relates to MBP-FALDR enzyme (maltose binding protein-fatty aldehyde reductase fusion protein). Put plainly: Continuous spectrophotometric assay of fatty aldehyde reductase activity (NADPH oxidation at 340 nm), substrate comparison and kinetics. Type of test: biochemical, Marinobacter aquaeolei VT8. The protocol:
as §1, with “the NADPH. […] A linear fit of the data was then used to establish the rate, and the initial background rate was subtracted, to determine the rate associated with substrate reduction by the MBP-FALDR enzyme.” for “the NADPH.”
Having established that the MBP-FALDR would utilize NADPH as a substrate, it was possible to employ a continuous spectrophotometric assay to monitor substrate reduction rates based on the loss of absorbance at 340 nm when NADPH is oxidized to NADP^+. Using this assay, it was possible to establish the pH dependence of the reduction reaction. The rate of reaction was highest at pH 6.3, with a steep increase in activity going from 8.0 to 6.3. The rate at 6.3 was only slightly greater than at 6.5 ([…]). Several factors had to be considered in establishing the optimal pH of the assay. The first was the background oxidation of the NADPH without any MBP-FALDR enzyme present. […] The assays were run under an argon atmosphere to minimize oxidation of the NADPH by O2. A further consideration was the rapid degradation that occurs at the lowest pH values. […] So, for standard assays used here, a pH of 6.5 was selected, where the activity was minimally affected by slight variations in pH. The following discussion is useful in understanding some features and benefits of the various embodiments of the invention:
Utilizing the continuous assay to monitor MBP-FALDR activity, the dependence of rate on substrate concentration was determined for all of the commercially available substrates described above. Each assay was repeated multiple times to confirm the results from each single determination. The results obtained for cis-11-hexadecenal are shown in FIG. 2 and are representative of the results obtained for repeated determinations and for the other substrates. […] In addition, several factors could limit the observed activity. All of the substrates tested have limited solubility in aqueous solutions, and must first be suspended in solution via sonication. Even under these conditions, it is likely that the substrates exist inside micelles. The sonication process utilized here could result in the partial degradation of the substrate over time. Additionally, the suspension of the substrate in solution is only temporary, and the substrate slowly separates from aqueous solution. Due to these limitations, the measured activity is likely to be an underestimate of the actual activity. In the cell, the enzyme and substrate are likely associated with the hydrophobic membranes. […] It was also observed that the MBP-FALDR enzyme was unstable over time, even when stored at 4° C., losing as much as 50% of the activity over a period of a week. Though the purification is quite rapid, it is uncertain how much activity is lost during preparation. […]

A short description of test [4]: Decanal reduction after Factor Xa removal of maltose binding protein. The test is classed as biochemical. The conditions noted are these: MBP removed by Factor Xa cleavage. The protocol:
Since all the assays were conducted with the MBP-FALDR fusion protein, a principle concern was whether the fusion protein accurately represented the activity of the wild-type fatty aldehyde reducatase enzyme comprising the amino acid sequence of SEQ ID NO: 2. To examine whether the maltose binding protein affected the activity of the wild-type fatty aldehyde reducatase enzyme comprising the amino acid sequence of SEQ ID NO: 2, the maltose binding protein was removed from the N-terminus of the fatty aldehyde reducatase enzyme comprising the amino acid sequence of SEQ ID NO: 2 by Factor Xa cleavage. The near complete cleavage of maltose binding protein was verified by SDS-PAGE. This cleavage is facilitated by the incorporation of a factor Xa cleavage site (Ile-Glu-Gly-Arg) just upstream of the EcoRI site of the pMAL-c2x vector.

As to `CCCCCCCCCCO` [decanol], the “inhibition of decanal reduction” value in the test with MBP-FALDR fusion protein is roughly 45%. In addition, the “activity over background with NADH or NAD+” value in the test with MBP-FALDR enzyme [1] is given as “no indication of activity over background”. Besides, the “reverse reaction: aldehyde production by GC” value with MBP-FALDR enzyme [2] (with NADP+) is given as “no detectable levels”.
By Km is commonly meant the concentration of substrate that gives half-maximal velocity. `CCCCCCCCCC=O` [Decanal]: in the test with MBP-FALDR enzyme [1], the “activity over background with NADH or NAD+” value was “no indication of activity over background”. Moreover, the “substrate activity in words” value in test [3] (compared with decanal, substrate 100 μg/mL) is given as “highest activity of the substrates tested”. The “activity (substrate reduction rate)” value in test [3] (substrate 100 μg/mL, 160 μg enzyme) is 85 nmol/min/mg. Further, the “Relative Activity (Percent of Decanal)” value in test [3] (substrate 100 μg/mL, 160 μg enzyme, decanal = 85 nmols/min/mg = 100) is reported as 100% of Decanal. In addition, the Michaelis-Menten constant (Km) in test [3] (substrate of MBP-FALDR, Michaelis-Menten fit, NADPH, FIG. 2 substrate is cis-11-hexadecenal) is roughly 100 µM. In addition, the “substrate conversion by GC” value in the test on MBP-FALDR enzyme [2] (with NADPH, overnight, argon, room temperature, new peak confirmed as decanol by MS) is recorded as “decrease in the decanal peak”.

B1: cleaved fatty aldehyde reducatase enzyme: fatty aldehyde reductase of SEQ ID NO: 2 freed from MBP by Factor Xa cleavage (protein)
chain: MAIQQVHHADTSSSKVLGQLRGKRVLITGTTGFLGKVVLERLIRAVPDIGAIYLLIRGNKRHPDARSRFLEEIATSSVFDRLREADSEGFDAFLEERIHCVTGEVTEAGFGIGQEDYRKLATELDAVINSAASVNFREELDKALAINTLCLRNIAGMVDLNPKLAVLQVSTCYVNGMNSGQVTESVIKPAGEAVPRSPDGFYEIEELVRLLQDKIEDVQARYSGKVLERKLVDLGIREANRYGWSDTYTFTKWLGEQLLMKALNGRTLTILRPSIIESALEEPAPGWIEGVKVADAIILAYAREKVTLFPGKRSGIIDVIPVDLVANSIILSLAEALGEPGRRRIYQCCSGGGNPISLGEFIDHLMAESKANYAAYDHLFYRQPSKPFLAVNRALFDLVISGVRLPLSLTDRVLKLLGNSRDLKMLRNLDTTQSLATIFGFYTAPDYIFRNDELMALANRMGEVDKGLFPVDARLIDWELYLRKIHLAGLNRYALKERKVYSLKTARQRKKAA
modifications: Marinobacter aquaeolei VT8
In the case of B1, in test [4], the “rate of substrate reduction versus MBP-FALDR fusion protein” value is given as “did not reveal any loss or improvement”.
